According to article PMC7146381, “Modulation of Adhesion Process, E-Selectin and VEGF Production by Anthocyanins and Their Metabolites in an In Vitro Model of Atherosclerosis” (Nutrients, 2020):
Marks after values point to notes of the source that are not given here.

What was measured:
[1] = system: adhesion of monocytes to endothelial cells; design: method as in PMID 26873533; conditions: TNF-α 4 h, monocyte co-incubation 15 min; cited from earlier work
E-selectin = test: ELISA quantification of E-selectin in cell supernatant; format: cell-based, Human; conditions: for levels of E-selectin in cell supernatant: with TNF-α 100 ng mL^−1, mean ± SEM; for change of E-selectin levels compared to the negative control (without TNF-α): p < 0.05
Method: (§1) When the confluency reached about 80%, HUVECs were removed using trypsin ([…]) and seeded on a 0.1% gelatin pre-coated 96-well black plate at the concentration of 2 × 10^4 cells/well at 37 °C and 5% CO2. After 24 h incubation, THP-1 (2 × 10^6) cells were labelled with CellTracker^TM Green CMFDA (1 µM) in 1 mL serum-free RPMI medium (containing 1% HEPES, 1% sodium pyruvate and 0.1% gentamicin) for 30 min. Successively, cells were washed twice, re-suspended in HUVEC medium at a final concentration of 2 × 10^5 cells mL^−1 and added to HUVECs. The adhesion process was induced for 24 h with 100 ng mL^−1 of TNF-α. Then, 200 μL of new medium containing the single compounds (0.02 µM, 0.2 µM, 2 µM and 20 µM for Peo and Pet-3-glc and 0.05 µM, 0.5 µM, 5 µM and 50 µM for VA and MetGA) was added and the cells were further incubated for 24 h. Medium from each well was collected and stored at −80 °C until ELISA analysis. Cells were rinsed twice with 200 µL of Hanks balanced salt solution and the fluorescence (excitation: 485 nm, emission: 538 nm) associated with the number of labeled THP-1 cells attached to the HUVECs was measured by a spectrophotometer (mod. F200 Infinite, TECAN Milan, Italy). Each compound and concentration were tested in quintuplicate in three independent experiments.
(§2) At the end of the experiment, the recovered cell culture supernatants were used to quantify the concentrations of soluble VCAM-1 (Cat# EK0537, BosterBio), E-selectin (Cat# MBS355367, MyBioSource) and VEGF (Cat# V3-200-820-VEF, Vinci-Biochem). The analysis was performed using ELISA kits according to the manufacturer’s instruction. The analyses were conducted in quadruplicate and the results derived from three independent experiments.

soluble VCAM-1 = test: ELISA quantification of soluble VCAM-1 in cell supernatant; format: cell-based, Human; conditions: with TNF-α 100 ng mL^−1, mean ± SEM
Method: as §1, §2

THP-1 adhesion to HUVECs = test: THP-1 (monocytes) adhesion to TNF-α-activated HUVECs, fluorescence of labelled THP-1; format: cell-based, Human; conditions: 24 h after TNF-α 100 ng mL^−1
Method: as §1

[2] = Cytotoxicity, Trypan blue assay on HUVECs; format: cell-based, Human; conditions: human
Method: (§3) The cytotoxicity of the compounds was tested by Trypan blue and (3-(4,5-dimethylthiazol-2-yl)-2, 5-diphenyltetrazolium bromide (MTT) assay on HUVECs, according to the manufacturer’s instructions. Triton X-100 was used as positive control. Two independent experiments were performed in which each compound and concentration was tested in quadruplicate.

[3] = Cytotoxicity, MTT assay on HUVECs; format: cell-based; conditions: human, with TNF-α stimulus, mean ± SEM, read-out: Percentage of cell viability, MTT assay
Method: as §3

VEGF = test: ELISA quantification of VEGF in cell supernatant; format: cell-based, Human; conditions: for levels of VEGF in cell supernatant: with TNF-α 100 ng mL^−1, mean ± SEM
Method: as §1, §2

HUVECs = test: Cytotoxicity, Trypan blue assay on HUVECs; format: cell-based, Human; conditions: positive control, HUVEC cells, data not shown; p < 0.0001 vs cells with and without TNF-α (99%)
Method: as §3

[4] = 0.02 µM, controls 160-164 (no TNF-α), 316-317 (TNF-α)
[5] = 0.02 µM, controls 59-64 (no TNF-α), 307-316 (TNF-α)
[6] = 0.02 µM, controls 120-121 (no TNF-α), 170-172 (TNF-α)

OC[C@H]1O[C@@H](Oc2cc3c(O)cc(O)cc3[o+]c2-c2ccc(O)c(O)c2)[C@H](O)[C@@H](O)[C@H]1O [galactoside]
concentrations with significant reduction in the adhesion of monocytes to endothelial cells [1]: 0.1 to 2 µM

OC[C@H]1O[C@@H](Oc2cc3c(O)cc(O)cc3[o+]c2-c2cc(O)c(O)c(O)c2)[C@H](O)[C@@H](O)[C@@H]1O [delphinidin-3-glucoside]
concentrations with significant reduction in the adhesion of monocytes to endothelial cells [1]: all the concentrations tested

O=C(O)c1ccc(O)c(O)c1 [protocatechuic acid]
concentrations with significant reduction in the adhesion of monocytes to endothelial cells [1]: all concentration tested

COc1cc(/C=C/C(=O)O)ccc1O [ferulic, ferulic acid]
concentrations with significant reduction in the adhesion of monocytes to endothelial cells [1]: only effective at 1 μM and 2 µM

COc1cc(-c2[o+]c3cc(O)cc(O)c3cc2O[C@@H]2O[C@H](CO)[C@@H](O)[C@H](O)[C@H]2O)cc(O)c1O [Pet-3-glc, petunidin-3-glucoside]
levels of E-selectin in cell supernatant (E-selectin; [4]): 115 ± 7.5 ^c
change of E-selectin production vs TNF-α control (E-selectin; 0.02 μM, p < 0.001): −64%
change of E-selectin levels compared to the negative control (without TNF-α) (E-selectin; 0.02 µM): −28%
levels of E-selectin in cell supernatant (E-selectin; 0.2 µM): 123 ± 11.8 ^a,c
change of E-selectin production vs TNF-α control (E-selectin; 0.2 μM, p < 0.001): −60%
levels of E-selectin in cell supernatant (E-selectin; 2 µM): 104 ± 6.3 ^c
change of E-selectin production vs TNF-α control (E-selectin; 2 μM, p < 0.001): −67%
change of E-selectin levels compared to the negative control (without TNF-α) (E-selectin; 2 μM): −36%
levels of E-selectin in cell supernatant (E-selectin; 20 µM): 88 ± 12.1 ^c
change of E-selectin production vs TNF-α control (E-selectin; 20 μM, p < 0.001): −72%
change of E-selectin levels compared to the negative control (without TNF-α) (E-selectin; 20 µM): −45%
levels of sVCAM-1 in cell supernatant (soluble VCAM-1; [5]): 311 ± 13 ^b
levels of sVCAM-1 in cell supernatant (soluble VCAM-1; 0.2 µM): 297 ± 15 ^b
levels of sVCAM-1 in cell supernatant (soluble VCAM-1; 2 µM): 300 ± 14 ^b
levels of sVCAM-1 in cell supernatant (soluble VCAM-1; 20 µM): 83 ± 10 ^c
change of THP-1 adhesion to HUVECs compared to the TNF-α treatment (THP-1 adhesion to HUVECs; 0.02 µM, p < 0.0001): −37%
change of THP-1 adhesion to HUVECs compared to the TNF-α treatment (THP-1 adhesion to HUVECs; 0.2 µM, p < 0.0001): −33%
change of THP-1 adhesion to HUVECs compared to the TNF-α treatment (THP-1 adhesion to HUVECs; 2 µM, p < 0.0001): −33%
change of THP-1 adhesion to HUVECs compared to the TNF-α treatment (THP-1 adhesion to HUVECs; 20 μM, p < 0.0001): −45%
viability at 0.02 µM [2]: 110%
viability at 0.2 µM [2]: 97 ± 1%
viability at 2 µM [2]: 97.7 ± 0.33%
viability at 20 µM [2]: 100%
viability at 20 µM [3]: 94.4 ± 0.45%
levels of VEGF in cell supernatant (VEGF; [6]): 129 ± 10 ^a
change of VEGF concentrations vs TNF-α (VEGF; 0.02 μM, p < 0.001): −24%
levels of VEGF in cell supernatant (VEGF; 0.2 µM): 123 ± 7.4 ^a
change of VEGF concentrations vs TNF-α (VEGF; 0.2 μM, p < 0.001): −27%
levels of VEGF in cell supernatant (VEGF; 2 µM): 123 ± 2.9 ^a
change of VEGF concentrations vs TNF-α (VEGF; 2 μM, p < 0.001): −28%
levels of VEGF in cell supernatant (VEGF; 20 µM): 117 ± 9.9 ^a
change of VEGF concentrations vs TNF-α (VEGF; 20 μM, p < 0.001): −30%

O=C(O)CNC(=O)c1ccccc1 [hippuric acids, hippuric acid]
concentrations with significant reduction in the adhesion of monocytes to endothelial cells [1]: only effective at 1 μM and 2 µM

Oc1cc(O)c2cc(O[C@@H]3OC[C@H](O)[C@H](O)[C@H]3O)c(-c3ccc(O)c(O)c3)[o+]c2c1 [arabinoside]
concentrations with significant reduction in the adhesion of monocytes to endothelial cells [1]: 0.1 to 2 µM

OC[C@H]1O[C@@H](Oc2cc3c(O)cc(O)cc3[o+]c2-c2ccc(O)c(O)c2)[C@H](O)[C@@H](O)[C@@H]1O [cyanidin-3-glucoside]
concentrations with significant reduction in the adhesion of monocytes to endothelial cells [1]: 0.1 to 2 µM

COc1cc(C(=O)O)ccc1O [VA, vanillic acid]
levels of E-selectin in cell supernatant (E-selectin; 0.05 µM): 312 ± 14.1 ^b
levels of E-selectin in cell supernatant (E-selectin; 0.5 µM): 312 ± 11.2 ^b
levels of E-selectin in cell supernatant (E-selectin; 5 µM): 305 ± 7.4 ^b
levels of E-selectin in cell supernatant (E-selectin; 50 µM): 95 ± 13.2 ^c
change of E-selectin levels with respect to the positive TNF-α control (E-selectin; 50 μM, p < 0.001): −70%
change of THP-1 adhesion to HUVECs compared to the TNF-α treatment (THP-1 adhesion to HUVECs; 50 μM, p < 0.001): −21%
viability at 0.05 µM [2]: 100%
viability at 0.5 µM [2]: 99.7 ± 0.33%
viability at 5 µM [2]: 99.7 ± 0.66%
viability at 50 µM [2]: 99.3 ± 0.67%
viability at 50 µM ([3]; 50 µM): 99.7 ± 0.32%
concentrations with significant reduction in the adhesion of monocytes to endothelial cells [1]: 0.2 μM and 2 µM only
change of VEGF concentrations vs TNF-α (VEGF; 0.05 μM): −12%
levels of VEGF in cell supernatant (VEGF; 0.05 µM): 149 ± 3.0 ^c
change of VEGF concentrations vs TNF-α (VEGF; 0.5 μM): −17%
levels of VEGF in cell supernatant (VEGF; 0.5 µM): 141 ± 8.3 ^c
change of VEGF concentrations vs TNF-α (VEGF; 5 μM): −13%
levels of VEGF in cell supernatant (VEGF; 5 µM): 147 ± 4.9 ^c
change of VEGF concentrations vs TNF-α (VEGF; 50 μM): −21%
levels of VEGF in cell supernatant (VEGF; 50 µM): 135 ± 5.7 ^c

Triton X-100 [reference compound]
cell viability reduced up to (HUVECs): 20%

COc1cc(-c2[o+]c3cc(O)cc(O)c3cc2O[C@@H]2O[C@H](CO)[C@@H](O)[C@H](O)[C@H]2O)ccc1O [Peo-3-glc, peonidin-3-glucoside]
levels of E-selectin in cell supernatant (E-selectin; [4]): 143 ± 4.3 ^a
change of E-selectin production vs TNF-α control (E-selectin; 0.02 μM, p < 0.001): −55%
levels of E-selectin in cell supernatant (E-selectin; 0.2 µM): 108 ± 5.3 ^c
change of E-selectin production vs TNF-α control (E-selectin; 0.2 μM, p < 0.001): −66%
change of E-selectin levels compared to the negative control (without TNF-α) (E-selectin; 0.2 μM): −32%
levels of E-selectin in cell supernatant (E-selectin; 2 µM): 109 ± 7.2 ^c
change of E-selectin production vs TNF-α control (E-selectin; 2 μM, p < 0.001): −65%
change of E-selectin levels compared to the negative control (without TNF-α) (E-selectin; 2 μM): −31%
levels of E-selectin in cell supernatant (E-selectin; 20 µM): 76 ± 8.4 ^c
change of E-selectin production vs TNF-α control (E-selectin; 20 μM, p < 0.001): −76%
change of E-selectin levels compared to the negative control (without TNF-α) (E-selectin; 20 µM): −53%
levels of sVCAM-1 in cell supernatant (soluble VCAM-1; [5]): 107 ± 15 ^c
levels of sVCAM-1 in cell supernatant (soluble VCAM-1; 0.2 µM): 104 ± 16 ^c
levels of sVCAM-1 in cell supernatant (soluble VCAM-1; 2 µM): 186 ± 12 ^c
levels of sVCAM-1 in cell supernatant (soluble VCAM-1; 20 µM): 149 ± 24 ^c
change of THP-1 adhesion to HUVECs compared to the TNF-α treatment (THP-1 adhesion to HUVECs; 0.02 µM, p < 0.0001): −37%
change of THP-1 adhesion to HUVECs compared to the TNF-α treatment (THP-1 adhesion to HUVECs; 0.2 µM, p < 0.0001): −24%
change of THP-1 adhesion to HUVECs compared to the TNF-α treatment (THP-1 adhesion to HUVECs; 2 µM, p < 0.0001): −30%
change of THP-1 adhesion to HUVECs compared to the TNF-α treatment (THP-1 adhesion to HUVECs; 20 μM, p < 0.0001): −47%
viability at 0.02 µM [2]: 99.7 ± 0.33%
viability at 0.2 µM [2]: 100%
viability at 2 µM [2]: 99.3 ± 0.67%
viability at 20 µM [2]: 99.3 ± 0.33%
viability at 20 µM [3]: 98.5 ± 0.12%
concentrations with significant reduction in the adhesion of monocytes to endothelial cells [1]: effective only at the lowest concentration
levels of VEGF in cell supernatant (VEGF; [6]): 120 ± 6.9 ^a
change of VEGF concentrations vs TNF-α (VEGF; 0.02 μM, p < 0.001): −27%
levels of VEGF in cell supernatant (VEGF; 0.2 µM): 123 ± 1.7 ^a
change of VEGF concentrations vs TNF-α (VEGF; 0.2 μM, p < 0.001): −28%
levels of VEGF in cell supernatant (VEGF; 2 µM): 123 ± 6.0 ^a
change of VEGF concentrations vs TNF-α (VEGF; 2 μM, p < 0.001): −30%
levels of VEGF in cell supernatant (VEGF; 20 µM): 119 ± 2.6 ^a
change of VEGF concentrations vs TNF-α (VEGF; 20 μM, p < 0.001): −30%
